Reference: publication PMC3124622 (Biochemical and biophysical research communications, 2011)
Entries after “also recorded” stand apart in the source; their conditions may differ. Where two headings read alike, the source gives them in different places.

Key:
E. coli TGT Wild-Type = E. coli TGT Wild-Type (Escherichia coli, UniProt P0A847); experiment: Pteridine inhibition of guanine incorporation; format: biochemical
human TGT [1] = biological target: T1, human TGT (Homo sapiens, UniProt Q9BXR0); experiment: Biopterin inhibition of human TGT; format: biochemical
[2] = system: Wild-type and Mutant E. coli TGTs; experiment: Pteridine inhibition of wild-type and mutant E. coli TGTs; format: biochemical; conditions: the mutant enzymes
[3] = biological target: TGT from mouse fibroblasts; conditions: cited from earlier work
[4] = system: TGT from rabbit reticulocytes; conditions: cited from earlier work
E. coli TGT V217G = E. coli TGT V217G (Escherichia coli, UniProt P0A847, V217G); experiment: Pteridine inhibition of guanine incorporation; format: biochemical; conditions: V217G mutant; vs guanine; 20 μM tRNA, pH 7.3
E. coli TGT C145V/T146V = E. coli TGT C145V/T146V (Escherichia coli, UniProt P0A847, C145V/T146V); experiment: Pteridine inhibition of guanine incorporation; format: biochemical; conditions: C145V/T146V mutant; vs guanine; 20 μM tRNA, pH 7.3
[5] = biological target: E. coli TGT C145V/T146V/V217G (Escherichia coli, UniProt P0A847, C145V/T146V/V217G); experiment: Pteridine inhibition of guanine incorporation; format: biochemical; conditions: C145V/T146V/V217G (triple) mutant; vs guanine; 20 μM tRNA, pH 7.3
[6] = biological target: E. coli TGT C145V/T146V/P147N/V217G (Escherichia coli, UniProt P0A847, C145V/P147N/T146V/V217G); experiment: Pteridine inhibition of guanine incorporation; format: biochemical; conditions: C145V/T146V/P147N/V217G (quadruple) mutant; vs guanine; 20 μM tRNA, pH 7.3
[7] = system: E. coli TGT (C145V/T146V/V217G); experiment: Queuine incorporation by the E. coli TGT triple mutant; format: biochemical; conditions: queuine concentrations up to 50 μM (data not shown)
human TGT [8] = biological target: T1, human TGT; conditions: queuine as substrate, ref Chen et al. (2011) Nuc. Acids Res. 39, 2834; cited from earlier work

T1 sequence (Q9BXR0 whole entry): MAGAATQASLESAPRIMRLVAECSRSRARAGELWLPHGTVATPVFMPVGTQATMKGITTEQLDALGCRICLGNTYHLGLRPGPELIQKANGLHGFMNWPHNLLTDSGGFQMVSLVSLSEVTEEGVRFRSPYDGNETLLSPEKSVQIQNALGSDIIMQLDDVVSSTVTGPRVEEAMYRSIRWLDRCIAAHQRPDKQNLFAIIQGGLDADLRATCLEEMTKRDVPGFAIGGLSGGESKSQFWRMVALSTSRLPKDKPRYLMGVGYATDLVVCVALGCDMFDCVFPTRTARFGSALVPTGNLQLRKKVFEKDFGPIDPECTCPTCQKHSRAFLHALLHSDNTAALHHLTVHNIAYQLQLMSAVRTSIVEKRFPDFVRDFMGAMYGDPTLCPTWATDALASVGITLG
T1 sequence (Q9H974 whole entry partner): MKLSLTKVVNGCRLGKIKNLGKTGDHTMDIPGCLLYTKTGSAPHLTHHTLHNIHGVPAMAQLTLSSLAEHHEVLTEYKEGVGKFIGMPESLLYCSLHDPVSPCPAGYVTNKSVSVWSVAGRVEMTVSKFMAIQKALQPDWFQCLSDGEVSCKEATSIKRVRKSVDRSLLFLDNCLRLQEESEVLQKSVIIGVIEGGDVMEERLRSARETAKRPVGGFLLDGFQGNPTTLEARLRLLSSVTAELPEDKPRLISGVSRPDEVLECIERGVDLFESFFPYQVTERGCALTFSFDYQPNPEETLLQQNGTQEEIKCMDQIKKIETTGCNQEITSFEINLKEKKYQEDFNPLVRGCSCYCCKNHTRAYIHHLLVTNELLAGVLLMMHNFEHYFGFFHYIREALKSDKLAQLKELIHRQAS

Compound | inhibition of wild-type TGT (E. coli TGT Wild-Type; biopterin concentrations up to 3 mM) | Ki relative to the KM for queuine (human TGT [1]) | mode of inhibition (human TGT [1]; with respect to queuine, Dixon and Cornish-Bowden plots) | inhibition (in words) [2] | Ki [3] | inhibition ([4]; 20 μM biopterin, rabbit reticulocyte enzyme) | inhibition (in words) (E. coli TGT Wild-Type; wild-type enzyme) | Ki (E. coli TGT Wild-Type; wild-type enzyme, vs guanine, 20 μM tRNA, pH 7.3) | Ki (E. coli TGT V217G) | Ki (E. coli TGT C145V/T146V) | Ki [5] | Ki [6] | inhibition ([4]; 0.48 μM pterin, rabbit reticulocyte TGT) | incorporation of queuine as a substrate [7] | Km (human TGT [8]) | kcat (human TGT [8])
biopterin | no detectable inhibition | ca. 30 fold | competitive inhibitor | inhibited | ~1000 nM | 39% |  |  |  |  |  |  |  |  |  | 
Nc1nc2nccnc2c(=O)[nH]1 [Pterin, pterin] |  |  |  | inhibited |  |  | inhibited | 420 nM | 900 nM | 2200 nM | 1300 nM | 37000 nM | 44% |  |  | 
Nc1nc2[nH]cc(CN[C@H]3C=C[C@H](O)[C@@H]3O)c2c(=O)[nH]1 [Queuine, queuine] |  |  |  |  |  |  |  |  |  |  |  |  |  | does not recognize; also recorded: no incorporation | 0.26 µM | 8.2 (±0.2) 10^−3•s^−1
